US8071778B2, “Substituted heterocyclic ethers and their use in CNS disorders” (Bristol-Myers Squibb Company, priority 2006, dated 2011)
Like-named read-outs stand apart in the source and are kept apart here.

Experiments:
hSERT = molecular target: T1, hSERT (Homo sapiens, UniProt P31645); assay: SERT radioligand binding assay
T1 construct: expressed in transfected cells; host or cells: HEK-293 cells (crude membranes)
Experimental: (§1) NK-1 Binding assay. Crude membrane suspensions were prepared for the NK1 and SERT radioligand binding assays from U373 cells or recombinant HEK-293 cells expressing hSERT, respectively. […] The medium is removed from the flasks and the cells rinsed with HBSS without Ca and without Mg. The cells are then incubated for 5-10 minutes in 10 mM Tris-Cl, pH 7.5, 5 mM EDTA before the cells are lifted with a combination of pipetting and scraping, as needed. To prepare membranes, the cell suspension is collected into centrifuge bottles and homogenized for 30 seconds with a Polytron homogenizer. The suspension is centrifuged for 30 min 32,000×g, 4° C., then the supernatant is decanted and the pellet resuspended and homogenized in 50 mM Tris-Cl, pH 7.5, 1 mM EDTA for 10 seconds. The suspension is then centrifuged again for 30 min 32,000×g, 4° C. The supernatant is decanted and the pellet resuspended in 50 mM Tris-Cl, pH 7.5, 1 mM EDTA and briefly homogenized. A Bradford assay (Bio-rad) is performed and the membrane preparation diluted to 2 mg/ml with 50 mM Tris-Cl, pH 7.5, 1 mM EDTA. Aliquots are prepared, and then frozen and stored at −80° C.
(§2) SERT radioligand binding assay. Compounds are dissolved in 100% DMSO at a concentration 100× the desired highest assay concentration, serially diluted 1:3 in 100% DMSO, and 0.4 ul/well of each solution is dispensed to a Nunc polypropylene, round bottom, 384 well plate. […] The contents of the assay plate are then transferred to a Millipore MultiscreenHTS GF/B filter plate which has been pretreated with 0.5% PEI for at least one hour. The plate is vacuum filtered and washed with 7 washes of 100 ul/well of 50 mM Tris-Cl, pH 7.5, 120 mM NaCl, 5 mM KCl chilled to 4° C. The filtration and washing is completed in less than 90 s. The plates are air-dried overnight, 12 ul/well of MicroScint scintillation fluid added, and the plates counted in a Trilux.
(§3) Data analysis. […] Each plate is run in triplicate, and the concentration response curve thus generated is fit using the four-parameter dose response equation, Y=Bottom+(Top-Bottom)/(1+10^((Log IC50−X)*HillSlope)) in order to determine the IC50 value for each compound. The radioligand concentration chosen for each assay corresponds to the Kd concentration determined through saturation binding analysis for each assay.

NK-1 = molecular target: T2, NK-1 (Homo sapiens, UniProt P25103); assay: NK1 radioligand binding assay; conditions: U373 membrane preparation, [125I]Substance P
T2 construct: endogenous in cells; host or cells: U373 cells (crude membranes)
Experimental: as §1
as §2, with “NK1” for “SERT”, “0.6” for “0.4”, “20” for “50”, “0.5% (w/v) BSA” for “120 mM NaCl, 5 mM KCl”
as §3

[1] = HEK-hSERT membrane preparation, [125I]RTI-55, read-out: SERT IC50

T2 sequence (P25103 whole entry): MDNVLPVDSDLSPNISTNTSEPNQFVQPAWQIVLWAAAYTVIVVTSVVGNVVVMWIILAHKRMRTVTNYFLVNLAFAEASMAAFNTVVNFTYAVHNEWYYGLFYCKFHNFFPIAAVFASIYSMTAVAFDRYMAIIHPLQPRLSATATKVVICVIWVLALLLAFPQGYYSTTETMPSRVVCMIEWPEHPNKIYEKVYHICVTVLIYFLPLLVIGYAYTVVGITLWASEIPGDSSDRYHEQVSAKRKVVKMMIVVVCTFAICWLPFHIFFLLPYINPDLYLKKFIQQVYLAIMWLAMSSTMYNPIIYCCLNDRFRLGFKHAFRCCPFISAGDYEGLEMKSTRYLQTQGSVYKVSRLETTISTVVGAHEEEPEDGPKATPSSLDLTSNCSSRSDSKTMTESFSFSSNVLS
T1 sequence (P31645 whole entry): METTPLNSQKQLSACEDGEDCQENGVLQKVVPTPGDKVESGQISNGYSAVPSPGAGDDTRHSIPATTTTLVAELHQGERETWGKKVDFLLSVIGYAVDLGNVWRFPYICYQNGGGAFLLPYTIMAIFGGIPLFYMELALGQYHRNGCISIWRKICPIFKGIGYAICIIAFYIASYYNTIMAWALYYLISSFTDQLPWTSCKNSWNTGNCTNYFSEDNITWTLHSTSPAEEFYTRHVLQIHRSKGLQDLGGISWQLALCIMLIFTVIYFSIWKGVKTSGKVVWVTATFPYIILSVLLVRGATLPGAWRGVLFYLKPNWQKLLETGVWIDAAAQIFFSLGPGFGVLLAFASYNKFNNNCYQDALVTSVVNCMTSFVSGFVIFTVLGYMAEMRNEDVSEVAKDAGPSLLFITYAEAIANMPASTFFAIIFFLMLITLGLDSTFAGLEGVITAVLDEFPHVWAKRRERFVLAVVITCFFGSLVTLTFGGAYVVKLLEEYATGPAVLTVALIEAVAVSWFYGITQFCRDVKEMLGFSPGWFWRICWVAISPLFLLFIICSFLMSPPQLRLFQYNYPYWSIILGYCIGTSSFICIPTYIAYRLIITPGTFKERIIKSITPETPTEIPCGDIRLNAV

| IC50 (hSERT; [1]) [nM] | Structure (SMILES) | IC50 (hSERT) [nM] | IC50 (NK-1) [nM] |
| --- | --- | --- | --- |
|  | CN1CCC(COCc2cc(C(F)(F)F)cc(-c3ccc(C#N)cc3)n2)(c2ccc(F)cc2F)CC1 [Example 64] | 100 to 300 | 0.01 to 100 |
|  | CN1CCC(COCc2cc(C(F)(F)F)cc(-c3ncon3)n2)(c2ccc(F)cc2)CC1 [Example 37, 3-(6-(((4-(4-fluorophenyl)-1-methylpiperidin-4-yl)methoxy)methyl)-4-(trifluoromethyl)pyridin-2-yl)-1,2,4-oxadiazole] | 0.01 to 100 | 100 to 300 |
| 100 to 300 | FC(F)(F)c1cc(COCC2(c3ccccc3)CCNCC2)nc(N2CCOCC2)c1 [Example 15] |  | 0.01 to 100 |
|  | CCN(c1cc(C(F)(F)F)cc(COCC2(c3ccc(F)cc3)CCN(C)CC2)n1)C(C)C [Example 73] | 0.01 to 100 | 0.01 to 100 |
|  | CN1CCC(COCc2cc(-c3ccc(C#N)cc3)nc(-c3ccc(C#N)cc3)c2)(c2ccccc2)CC1 [Example 67] | 100 to 300 | > 300 |
|  | Cc1cc(C(F)(F)F)cc(COCC2(c3ccc(F)cc3)CCN(C)CC2)n1 [Example 36, 2-(((4-(4-fluorophenyl)-1-methylpiperidin-4-yl)methoxy)methyl)-6-methyl-4-(trifluoromethyl)pyridine] | 0.01 to 100 | 0.01 to 100 |
|  | CC(OCC1(c2ccccc2)CCN(C)CC1)c1cc(C(F)(F)F)cc(-c2ccc(C#N)cc2)n1 (stereo not shown) [Example 46] | 0.01 to 100 | 0.01 to 100 |
| 0.01 to 100 | Clc1ccc(-c2ccc(COCC3(c4ccccc4)CCNCC3)cn2)cc1 [Example 10] |  | > 300 |
|  | Cc1cc(-c2cc(C(F)(F)F)cc(COCC3(c4ccc(F)cc4)CCN(C)CC3)n2)ccc1C#N [Example 61] | 0.01 to 100 | 0.01 to 100 |
|  | CN1CCC(COCc2cc(C(F)(F)F)cc(N3CC[C@H](F)C3)n2)(c2ccc(F)cc2)CC1 [Example 91] | 0.01 to 100 | 0.01 to 100 |
|  | CN1CCC(COCc2ccc(-c3ccc(Cl)cc3)nc2)(c2ccccc2)CC1 [Example 50] | 0.01 to 100 | > 300 |
| 0.01 to 100 | N#CC1CCN(c2cc(C(F)(F)F)cc(COCC3(c4ccc(F)cc4)CCNCC3)n2)C1 (stereo not shown) [Example 18] |  | 0.01 to 100 |
|  | CC(OCC1(c2ccc(F)cc2)CCN(C)CC1)c1cc(C(F)(F)F)cc(Br)n1 (stereo not shown) [Example 33, 2-bromo-6-(1-((4-(4-fluorophenyl)-1-methylpiperidin-4-yl)methoxy)ethyl)-4-(trifluoromethyl)p] | 0.01 to 100 | 0.01 to 100 |
|  | CN1CCC(COCc2cc(C(F)(F)F)cc(-c3ccc(C#N)cc3)n2)(c2cccc(Cl)c2)CC1 [Example 82] | 0.01 to 100 | 0.01 to 100 |
| 0.01 to 100 | N#Cc1ccc(-c2cc(C(F)(F)F)cc(COCC3(c4ccccc4)CCNCC3)n2)cc1 [Example 6] |  | 0.01 to 100 |
|  | CN1CCC(COCc2cc(C(F)(F)F)cc(-c3ccncc3)n2)(c2ccccc2)CC1 [Example 39] | 0.01 to 100 | 0.01 to 100 |
|  | CN1CCC(COCc2cc(C(F)(F)F)cc(-c3ccc(C#N)cc3)n2)(c2cccc(F)c2)CC1 [Example 85] | 0.01 to 100 | 0.01 to 100 |
|  | Cc1cc(-c2cc(C(F)(F)F)cc(COCC3(c4ccccc4)CCN(C)CC3)n2)ccc1C#N [Example 60] | 0.01 to 100 | 0.01 to 100 |
| 0.01 to 100 | CC(OCC1(c2ccccc2)CCNCC1)c1cc(C(F)(F)F)cc(C(F)(F)F)n1 (stereo not shown) [Example 27, 2-(1-((4-phenylpiperidin-4-yl)methoxy)ethyl)-4,6-bis(trifluoromethyl)pyridine] |  | 0.01 to 100 |
|  | COc1cc(COCC2(c3ccc(F)cc3)CCN(C)CC2)cc(C(F)(F)F)n1 [Example 80] | 0.01 to 100 | 0.01 to 100 |

| IC50 (hSERT; [1]) [nM] | Structure (SMILES) | IC50 (hSERT) [nM] | IC50 (NK-1) [nM] |
| --- | --- | --- | --- |
| 100 to 300 | FC(F)(F)c1ccc(-c2cc(C(F)(F)F)cc(COCC3(c4ccccc4)CCNCC3)n2)cc1 [Example 3] |  | > 300 |
|  | CN1CCC(COCc2cc(C(F)(F)F)cc(-c3ccc(C#N)cc3)n2)(c2ccccc2)CC1 [Example 41] | 0.01 to 100 | 0.01 to 100 |
|  | COc1cc(C(C)OCC2(c3ccc(F)cc3)CCN(C)CC2)cc(-c2ccc(C#N)cc2)n1 (stereo not shown) [Example 79] | 0.01 to 100 | 0.01 to 100 |
|  | CC(OCC1(c2ccc(F)cc2)CCN(C)CC1)c1cc(C(F)(F)F)cc(N2CCCC2)n1 (stereo not shown) [Example 86] | 0.01 to 100 | 0.01 to 100 |
|  | CN1CCC(COCc2cc(C(F)(F)F)cc(-c3ccc[nH]3)n2)(c2ccc(F)cc2)CC1 [Example 66] | 0.01 to 100 | 0.01 to 100 |
|  | CC(OCC1(c2ccc(F)cc2)CCN(C)CC1)c1cc(C(F)(F)F)cc(N2CCC[C@@H]2C)n1 (stereo partly shown) [Example 95] | 0.01 to 100 | 0.01 to 100 |
| 0.01 to 100 | N#Cc1ccc(-c2cncc(COCC3(c4ccccc4)CCNCC3)c2)cc1 [Example 25, 4-(5-(((4-phenylpiperidin-4-yl)methoxy)methyl)pyridine-3yl)benzonitrile] |  | > 300 |
|  | CN1CCC(COCc2cncc(-c3ccco3)c2)(c2ccccc2)CC1 [Example 49] | 0.01 to 100 | > 300 |
| 0.01 to 100 | N#CC1CCN(c2cc(C(F)(F)F)cc(COCC3(c4ccc(F)cc4)CCNCC3)n2)CC1 [Example 17] |  | 0.01 to 100 |
|  | CN1CCC(COCc2cc(C(F)(F)F)cc(-c3ccc(C#N)cc3)n2)(c2cccnc2)CC1 [Example 98] | 0.01 to 100 | 0.01 to 100 |
|  | CN1CCC(COCc2cc(C(F)(F)F)cc(-c3cccn3C(=O)OC(C)(C)C)n2)(c2ccc(F)cc2)CC1 [Example 65] | 100 to 300 | 0.01 to 100 |
|  | CN1CCC(COCc2cc(C(F)(F)F)cc(N3CC[C@@H](F)C3)n2)(c2ccc(F)cc2)CC1 [Example 92] | 0.01 to 100 | 0.01 to 100 |
|  | COc1ccc(-c2cc(C(F)(F)F)cc(COCC3(c4ccc(F)cc4)CCN(C)CC3)n2)cc1 [Example 74] | 0.01 to 100 | 0.01 to 100 |
|  | C[C@H]1CCCN1c1cc(C(F)(F)F)cc(COCC2(c3ccc(F)cc3)CCN(C)CC2)n1 [Example 93] | 0.01 to 100 | 0.01 to 100 |
|  | CN1CCC(COCc2cc(C(F)(F)F)cc(Cl)n2)(c2cccnc2)CC1 [Example 35, 2-chloro-6-(((1-methyl-4-(pyridin-3-yl)piperidin-4-yl)methoxy)methyl)-4-(trifluoromethyl)pyridine] | 0.01 to 100 | > 300 |
|  | CN1CCC(COCc2cc(C(F)(F)F)cc(-c3ccc(C#N)cc3)n2)(c2ccccc2F)CC1 [Example 54] | 100 to 300 | 0.01 to 100 |
|  | CN1CCC(COCc2cc(C(F)(F)F)cc(-c3ccc(C#N)cc3)n2)(c2cccc(C(F)(F)F)c2)CC1 [Example 83] | 100 to 300 | 0.01 to 100 |
| 0.01 to 100 | Fc1ccc(C2(COCc3cc(C(F)(F)F)cc(N4CCCC4)n3)CCNCC2)cc1 [Example 20] |  | 0.01 to 100 |
|  | CN1CCC(COCc2cc(C(F)(F)F)cc(-c3ccc(C#N)cc3)n2)(c2ccc(F)c(F)c2)CC1 [Example 81] | 0.01 to 100 | 0.01 to 100 |

| Structure (SMILES) | IC50 (hSERT; [1]) [nM] | IC50 (hSERT) [nM] | IC50 (NK-1) [nM] |
| --- | --- | --- | --- |
| CC(OCC1(c2ccccc2)CCN(C)CC1)c1cc(C(F)(F)F)cc(-c2ccc(F)cc2)n1 (stereo not shown) [Example 34, 2-(4-fluorophenyl)-6-(1-((1-methyl-4-phenylpiperidin-4-yl)methoxy)ethyl)-4-(trifluoromethyl)pyridine] | 0.01 to 100 |  | 0.01 to 100 |
| CN1CCC(COCc2cc(C(F)(F)F)cc(N3CCCC3)n2)(c2ccccc2F)CC1 [Example 55] | 0.01 to 100 |  | 0.01 to 100 |
